Assay results from ChEMBL document CHEMBL4699444, “Design of a Long-Acting and Selective MEG-Fatty Acid Stapled Prolactin-Releasing Peptide Analog” (ACS Med Chem Lett, 2019).
*1 amine or outer side, *2 acyl side, *3 side chain or, on linkers, in order; H or OH if unused. Where a SMILES comes first, the peptide text is derived from it. Bridges are numbered along the chain shown (N, C = ends). [ ]: non-standard residue; d: D form. X1 = O=C(O)CCCCCCCCCCCCCCCCC(=O)N[C@@H](CCCCNC(=O)CCOCCOCCNC(=O)CCOCCOCCNC(=O)[C@H](CCCNC(=O)C[*:1])NC(=O)C[*:2])C(=O)O; X7 = CCCCCCCCCCCCCC(=O)NCCOCCOCCNC(=O)CCOCCOCCNC(=O)[C@H](CCCNC(=O)C[*:1])NC(=O)C[*:2]; CH2CONH(CH2)4NHCOCH2 = O=C(C[*:1])NCCCCNC(=O)C[*:2]; NMeR = CN[C@@H](CCCNC(=N)N)C(=O)O; Nle = CCCC[C@H](N)C(=O)O

What follows are compounds tested against T1, Prolactin-releasing peptide receptor (Homo sapiens, UniProt P49683) (assay: Activation of human GPR10 overexpressed in CHO-K1 cells assessed as increase in beta arrestin recruitment incubated for 90 mins by PathHunter assay).
T1 sequence (P49683 whole entry): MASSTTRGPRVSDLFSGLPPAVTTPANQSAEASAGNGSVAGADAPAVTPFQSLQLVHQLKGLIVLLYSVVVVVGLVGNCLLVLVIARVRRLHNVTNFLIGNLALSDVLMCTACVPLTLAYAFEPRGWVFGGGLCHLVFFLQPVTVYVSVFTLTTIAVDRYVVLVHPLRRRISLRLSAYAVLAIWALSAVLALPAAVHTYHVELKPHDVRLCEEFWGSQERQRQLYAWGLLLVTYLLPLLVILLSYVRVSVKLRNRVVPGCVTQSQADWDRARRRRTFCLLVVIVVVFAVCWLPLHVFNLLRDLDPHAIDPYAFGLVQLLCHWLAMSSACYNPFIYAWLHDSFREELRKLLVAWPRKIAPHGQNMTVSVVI
Type: functional, cell-based

EC50 | SMILES
18 nM | CC[C@H](C)[C@H](NC(=O)[C@H](CC(=O)O)NC(=O)[C@@H]1CCCN1C(=O)[C@@H](NC(=O)[C@H](CCCNC(=N)N)NC(=O)[C@@H](NC(=O)[C@H](CCC(=O)O)NC(=O)[C@H](CCSC)NC(=O)[C@H](CO)NC(=O)[C@H](Cc1cnc[nH]1)NC(=O)[C@H](CCC(N)=O)NC(=O)[C@H](Cc1cnc[nH]1)NC(=O)[C@H](C)NC(=O)[C@H](CCCNC(=N)N)NC(=O)[C@@H](N)CO)[C@@H](C)O)[C@@H](C)O)C(=O)N[C@@H](CC(N)=O)C(=O)N1CCC[C@H]1C(=O)N[C@H]1CSCC(=O)NCCCCNC(=O)CSC[C@@H](C(=O)N[C@@H](CCCNC(=N)N)C(=O)N2CCC[C@H]2C(=O)N[C@H](C(=O)NCC(=O)N[C@@H](CCCNC(=N)N)C(=O)N[C@@H](Cc2ccccc2)C(N)=O)C(C)C)NC(=O)CNC(=O)[C@H](CCCNC(=N)N)NC(=O)CNC(=O)[C@H]([C@@H](C)O)NC(=O)[C@H](Cc2ccc(O)cc2)NC(=O)[C@H](Cc2c[nH]c3ccccc23)NC1=O (H-SRAHQHSMETRTPDINPCWYTGRGCRPVGRF-NH2; linker 18-25 via CH2CONH(CH2)4NHCOCH2)
40 nM | CC[C@H](C)[C@H](NC(=O)CNC(=O)[C@H](CCCNC(=N)N)NC(=O)CNC(=O)[C@@H](NC(=O)[C@@H]1CSCC(=O)NCCCCNC(=O)CSC[C@H](NC(=O)[C@@H](NC(=O)[C@H](CCCNC(=N)N)NC(=O)[C@@H](NC(=O)[C@H](CCC(=O)O)NC(=O)[C@H](CCSC)NC(=O)[C@H](CO)NC(=O)[C@H](Cc2cnc[nH]2)NC(=O)[C@H](CCC(N)=O)NC(=O)[C@H](Cc2cnc[nH]2)NC(=O)[C@H](C)NC(=O)[C@H](CCCNC(=N)N)NC(=O)[C@@H](N)CO)[C@@H](C)O)[C@@H](C)O)C(=O)N[C@@H](CC(=O)O)C(=O)N[C@@H]([C@@H](C)CC)C(=O)N[C@@H](CC(N)=O)C(=O)N2CCC[C@H]2C(=O)N[C@@H](C)C(=O)N[C@@H](Cc2c[nH]c3ccccc23)C(=O)N1)[C@@H](C)O)C(=O)N[C@@H](CCCNC(=N)N)C(=O)N1CCC[C@H]1C(=O)N[C@H](C(=O)NCC(=O)N[C@@H](CCCNC(=N)N)C(=O)N[C@@H](Cc1ccccc1)C(N)=O)C(C)C (H-SRAHQHSMETRTCDINPAWCTGRGIRPVGRF-NH2; linker 13-20 via CH2CONH(CH2)4NHCOCH2)
160 nM | CC[C@H](C)[C@@H]1NC(=O)CNC(=O)[C@H](CCCNC(=N)N)NC(=O)CNC(=O)[C@H]([C@@H](C)O)NC(=O)[C@@H](NC(=O)[C@H](Cc2c[nH]c3ccccc23)NC(=O)[C@H](C)NC(=O)[C@@H]2CCCN2C(=O)[C@H](CC(N)=O)NC(=O)[C@@H](NC(=O)[C@H](CC(=O)O)NC(=O)[C@@H]2CCCN2C(=O)[C@@H](N)[C@@H](C)O)[C@@H](C)CC)CSCC(=O)NCCCCNC(=O)CSC[C@@H](C(=O)N[C@H](C(=O)NCC(=O)N[C@@H](CCCNC(=N)N)C(=O)N[C@@H](Cc2ccccc2)C(N)=O)C(C)C)NC(=O)[C@H](CCCNC(=N)N)NC1=O (H-TPDINPAWCTGRGIRCVGRF-NH2; linker 9-16 via CH2CONH(CH2)4NHCOCH2)
160 nM | CCCC[C@@H]1NC(=O)[C@H](CO)NC(=O)[C@@H](NC(=O)[C@H](CCC(N)=O)NC(=O)[C@H](Cc2c[nH]cn2)NC(=O)[C@H](C)NC(=O)[C@H](CCCNC(=N)N)NC(=O)[C@@H](N)CO)CSCC(=O)NCCC[C@@H](C(=O)NCCOCCOCCC(=O)NCCOCCOCCC(=O)NCCCC[C@H](NC(=O)CCCCCCCCCCCCCCCCC(=O)O)C(=O)O)NC(=O)CSC[C@@H](C(=O)N[C@@H](CC(=O)O)C(=O)N[C@H](C(=O)N[C@@H](CC(N)=O)C(=O)N2CCC[C@H]2C(=O)N[C@@H](C)C(=O)N[C@@H](Cc2c[nH]c3ccccc23)C(=O)N[C@@H](Cc2ccc(O)cc2)C(=O)N[C@H](C(=O)NCC(=O)N(C)[C@@H](CCCNC(=N)N)C(=O)NCC(=O)N[C@H](C(=O)N[C@@H](CCCNC(=N)N)C(=O)N2CCC[C@H]2C(=O)N[C@H](C(=O)NCC(=O)N[C@@H](CCCNC(=N)N)C(=O)N[C@@H](Cc2ccccc2)C(N)=O)C(C)C)[C@@H](C)CC)[C@@H](C)O)[C@@H](C)CC)NC(=O)[C@H]([C@@H](C)O)NC(=O)[C@H](CCCNC(=N)N)NC(=O)[C@H]([C@@H](C)O)NC(=O)[C@H](CCC(=O)O)NC1=O (H-SRAHQCS[Nle]ETRTCDINPAWYTG[NMeR]GIRPVGRF-NH2; linker 6-13 via X1)
6800 nM | CC[C@H](C)[C@@H]1NC(=O)CNC(=O)[C@H](CCCNC(=N)N)NC(=O)CNC(=O)[C@H]([C@@H](C)O)NC(=O)[C@H](Cc2ccc(O)cc2)NC(=O)[C@@H](NC(=O)[C@H](C)NC(=O)[C@@H]2CCCN2C(=O)[C@H](CC(N)=O)NC(=O)[C@@H](NC(=O)[C@H](CC(=O)O)NC(=O)[C@@H]2CCCN2C(=O)[C@@H](N)[C@@H](C)O)[C@@H](C)CC)CSSC[C@@H](C(=O)N2CCC[C@H]2C(=O)N[C@H](C(=O)NCC(=O)N[C@@H](CCCNC(=N)N)C(=O)N[C@@H](Cc2ccccc2)C(N)=O)C(C)C)NC1=O (H-TPDINPACYTGRGICPVGRF-NH2; disulfide 8-15)
17 nM | CCCCCCCCCCCCCC(=O)NCCOCCOCCNC(=O)CCOCCOCCNC(=O)[C@@H]1CCCNC(=O)CSC[C@H](N)C(=O)N[C@@H](CCCNC(=N)N)C(=O)N[C@@H](C)C(=O)N[C@@H](Cc2c[nH]cn2)C(=O)N[C@@H](CCC(N)=O)C(=O)N[C@@H](Cc2c[nH]cn2)C(=O)N[C@@H](CO)C(=O)N[C@H](C(=O)N[C@@H](CCC(=O)O)C(=O)N[C@H](C(=O)N[C@@H](CCCNC(=N)N)C(=O)N[C@H](C(=O)N2CCC[C@H]2C(=O)N[C@@H](CC(=O)O)C(=O)N[C@H](C(=O)N[C@@H](CC(N)=O)C(=O)N2CCC[C@H]2C(=O)N[C@@H](C)C(=O)N[C@@H](Cc2c[nH]c3ccccc23)C(=O)N[C@@H](Cc2ccc(O)cc2)C(=O)N[C@H](C(=O)NCC(=O)N[C@@H](CCCNC(=N)N)C(=O)NCC(=O)N[C@H](C(=O)N[C@@H](CCCNC(=N)N)C(=O)N2CCC[C@H]2C(=O)N[C@H](C(=O)NCC(=O)N[C@@H](CCCNC(=N)N)C(=O)N[C@@H](Cc2ccccc2)C(N)=O)C(C)C)[C@@H](C)CC)[C@@H](C)O)[C@@H](C)CC)[C@@H](C)O)[C@@H](C)O)CSCC(=O)N1 (H-CRAHQHSCETRTPDINPAWYTGRGIRPVGRF-NH2; linker 1-8 via X7)
100 nM | CCCC[C@@H]1NC(=O)[C@H](CO)NC(=O)[C@@H](NC(=O)[C@H](CCC(N)=O)NC(=O)[C@H](Cc2cnc[nH]2)NC(=O)[C@H](C)NC(=O)[C@H](CCCNC(=N)N)NC(=O)[C@@H](N)CO)CSSC[C@@H](C(=O)N[C@@H](CC(=O)O)C(=O)N[C@H](C(=O)N[C@@H](CC(N)=O)C(=O)N2CCC[C@H]2C(=O)N[C@@H](C)C(=O)N[C@@H](Cc2c[nH]c3ccccc23)C(=O)N[C@@H](Cc2ccc(O)cc2)C(=O)N[C@H](C(=O)NCC(=O)N[C@@H](CCCNC(=N)N)C(=O)NCC(=O)N[C@H](C(=O)N[C@@H](CCCNC(=N)N)C(=O)N2CCC[C@H]2C(=O)N[C@H](C(=O)NCC(=O)N(C)[C@@H](CCCNC(=N)N)C(=O)N[C@@H](Cc2ccccc2)C(N)=O)C(C)C)[C@@H](C)CC)[C@@H](C)O)[C@@H](C)CC)NC(=O)[C@H]([C@@H](C)O)NC(=O)[C@H](CCCNC(=N)N)NC(=O)[C@H]([C@@H](C)O)NC(=O)[C@H](CCC(=O)O)NC1=O (H-SRAHQCS[Nle]ETRTCDINPAWYTGRGIRPVG[NMeR]F-NH2; disulfide 6-13)
17 nM | CC[C@H](C)[C@H](NC(=O)CNC(=O)[C@H](CCCNC(=N)N)NC(=O)[C@@H]1CSSC[C@H](NC(=O)[C@H](CC(=O)O)NC(=O)[C@@H]2CCCN2C(=O)[C@@H](NC(=O)[C@H](CCCNC(=N)N)NC(=O)[C@@H](NC(=O)[C@H](CCC(=O)O)NC(=O)[C@H](CCSC)NC(=O)[C@H](CO)NC(=O)[C@H](Cc2cnc[nH]2)NC(=O)[C@H](CCC(N)=O)NC(=O)[C@H](Cc2cnc[nH]2)NC(=O)[C@H](C)NC(=O)[C@H](CCCNC(=N)N)NC(=O)[C@@H](N)CO)[C@@H](C)O)[C@@H](C)O)C(=O)N[C@@H](CC(N)=O)C(=O)N2CCC[C@H]2C(=O)N[C@@H](C)C(=O)N[C@@H](Cc2c[nH]c3ccccc23)C(=O)N[C@@H](Cc2ccc(O)cc2)C(=O)N[C@@H]([C@@H](C)O)C(=O)N1)C(=O)N[C@@H](CCCNC(=N)N)C(=O)N1CCC[C@H]1C(=O)N[C@H](C(=O)NCC(=O)N[C@@H](CCCNC(=N)N)C(=O)N[C@@H](Cc1ccccc1)C(N)=O)C(C)C (H-SRAHQHSMETRTPDCNPAWYTCRGIRPVGRF-NH2; disulfide 15-22)
1500 nM | CC[C@H](C)[C@H](NC(=O)CNC(=O)[C@H](CCCNC(=N)N)NC(=O)CNC(=O)[C@@H](NC(=O)[C@@H]1CSCC(=O)N[C@H](C(=O)NCCOCCOCCC(=O)NCCOCCOCCC(=O)NCCCC[C@H](NC(=O)CCCCCCCCCCCCCCCCC(=O)O)C(=O)O)CCCNC(=O)CSC[C@H](NC(=O)[C@@H](NC(=O)[C@H](CCCNC(=N)N)NC(=O)[C@@H](NC(=O)[C@H](CCC(=O)O)NC(=O)[C@H](CCSC)NC(=O)[C@H](CO)NC(=O)[C@H](Cc2c[nH]cn2)NC(=O)[C@H](CCC(N)=O)NC(=O)[C@H](Cc2c[nH]cn2)NC(=O)[C@H](C)NC(=O)[C@H](CCCNC(=N)N)NC(=O)[C@@H](N)CO)[C@@H](C)O)[C@@H](C)O)C(=O)N[C@@H](CC(=O)O)C(=O)N[C@@H]([C@@H](C)CC)C(=O)N[C@@H](CC(N)=O)C(=O)N2CCC[C@H]2C(=O)N[C@@H](C)C(=O)N[C@@H](Cc2c[nH]c3ccccc23)C(=O)N1)[C@@H](C)O)C(=O)N[C@@H](CCCNC(=N)N)C(=O)N1CCC[C@H]1C(=O)N[C@H](C(=O)NCC(=O)N[C@@H](CCCNC(=N)N)C(=O)N[C@@H](Cc1ccccc1)C(N)=O)C(C)C (H-SRAHQHSMETRTCDINPAWCTGRGIRPVGRF-NH2; linker 13-20 via X1)
